Values of other authors as cited in patent US20030013675A1 (Boehringer Ingelheim Pharma KG, priority 2001, published 2003).

Key:
adherent human monocyte = conditions: in particular human peripheral blood monocyte
antigen-challenged pig = conditions: in vivo
[1] = inhaled at several times the recommended dose

SMILES: CCNC(=O)[C@H]1OC(n2cnc3c(N)nc(NCCc4ccc(CCC(=O)O)cc4)nc32)[C@H](O)[C@@H]1O (stereo partly shown) [CGS 21680]
- endotoxin-stimulated adherent human monocyte TNFα production (adherent human monocyte): decreases
- neutrophil superoxidase release (Human Neutrophils): inhibits

SMILES: CCCn1c(=O)c2c(C)nc(CC)n2c2nc(OC)ccc21 [Example D-22888]
- antiallergic effect (antigen-challenged pig): strong antiallergic affect
- rhinorrhea in the antigen-challenged pig (antigen-challenged pig): inhibit rhinorrhea

SMILES: CCNC(=O)[C@@H]1O[C@H](n2cnc3c(N)ncnc32)[C@@H](O)[C@H]1O [NECA]
- zymosan-stimulated oxidative activity in guinea pig eosinophils (guinea pig eosinophils): inhibits

SMILES: CC[N+]1(C)[C@@H]2CC(OC(=O)[C@H](CO)c3ccccc3)C[C@H]1[C@@H]1O[C@@H]12 (stereo partly shown) [oxitropium]
- change in heart rate, blood pressure, bladder function, intraocular pressure, or pupillary diameter [1]: little or no change

SMILES: C[N+]1(C)[C@@H]2C[C@@H](OC(=O)C(O)(c3cccs3)c3cccs3)C[C@H]1[C@@H]1O[C@@H]12 [tiotropium, (1α, 2β, 4β, 5α, 7β)-7-[(hydroxydi-2-thienylacetyl)oxy]-9,9-dimethyl-3-oxa-9-azoniatricyclo[3.3.1.0^2,4]nonane bromide]
- change in heart rate, blood pressure, bladder function, intraocular pressure, or pupillary diameter [1]: little or no change
